Experimental data from patent publication US20260263401A1, “Topical composition and uses thereof” (UNIVERSIDADE DE COIMBRA, priority 2022, published 2026).
Where “and” joins values, the source holds several entries; their conditions need not be identical. Identical values can stand only once. Entries after “also recorded” stand apart in the source; their conditions may differ.

Legend:
[1] = test system: NRF2 dependent genes in HaCaT; test: Expression of NRF2 dependent genes in keratinocytes (real time PCR); assay type: cell-based, human; conditions: 6 h
Procedure: HaCaT is cultured with Dulbecco's Modified Eagle's Medium (DMEM) (Sigma-Aldrich, St. Louis, MO, USA), supplemented with 10% (v/v) heat-inactivated fetal bovine serum (FBS), 1% (v/v) antibiotic solution (100 U/mL penicillin, 100 μg/mL streptomycin) (Gibco, Carlsbad, CA, USA), 3.7 g/L sodium bicarbonate and 1 mM sodium pyruvate (Sigma-Aldrich, St. Louis, MO, USA).
In an embodiment, HaCaT cells are seeded in 6-well plates at a density of 6×10^5 cells/well and allowed to adhere for 24 h. After that, cells are incubated for 24 h with exposure medium (control) or treated with 10 mM of NAC, 10 mM of LYS, 8 μM of DNFB, 100 μM of MI, or 10 mM+DNFB, 10 mM LYS+DNFB and 10 mM+MI, 10 mM LYS+MI for 6 h or 24 h.
In an embodiment, total RNA (ribonucleic acid) is extracted from HaCaT treated cells, as previously described by our group [37], with NZYol reagent, according to the manufacturer's instructions and its concentration is determined by OD260 measurement using a NanoDrop spectrophotometer (Thermo Scientific, Wilmington, DE, USA). Samples are stored in RNA Storage Solution at −80° C. until use. Total RNA (1 g) is reverse-transcribed using the iScript Select cDNA Synthesis Kit, and real-time reverse transcriptase-polymerase chain reaction (RT-PCR) reactions are performed, in duplicate for each sample, on a Bio-Rad MyCycler iQ5 (Hercules, CA, USA), as previously described by our group [38].
In an embodiment, after amplification, a threshold is set for each gene and Ct values are calculated for all samples. Gene expression changes are analyzed using Bio-Rad CFX Maestro 1.1 system software (Hercules, CA, USA). The results are normalized using Hprt-1 as the reference gene. Primer sequences are designed using Beacon Designer software version 7.7 (Premier Biosoft International, Palo Alto, CA, USA) and thoroughly tested.

THP-1 cells = test: Maturation of THP-1 cells assessed by up-regulation of co-stimulatory molecules CD86 and CD54; conditions: for CD54 and CD86 maturation levels, pre-incubation before allergen: pre-incubation (20 mM) before 24 h DNFB (8 μM) and MI (100 μM); for levels of CD54 and CD86, allergen alone: 24 h, DNFB 8 μM, MI 100 μM
Procedure: In an embodiment, the THP-1 cell line has been used as a dendritic cell (DC) surrogate for skin sensitizers hazard, following the OECD guidelines. […] The THP-1 cells are stabilized overnight at a density of 5×10^5 cells/mL. On the day after, cells are seeded in 12-well plates at a density of 8×10^5 cells/well and incubated for 24 h with medium (control), Dimethyl sulfoxide (DMSO) (allergens solvent) or with 20 mM of each inhibitor of ACD (NAC), (LYS) or mixture (NAC+LYS). In addition, sensitization is induced with the strong skin allergen 1-fluoro-2,4-dinitrobenzene (DNFB) (8 μM) or Methylisothiazolinone (MI) (100 μM) for 24 h. At the end of the incubation period, cells are washed with ice-cold PBS supplemented with 1% (v/v) inactivated FBS, centrifuged at 300×g for 5 min at 4° C. and pellets are dissolved in ice-cold PBS supplemented with 1% (v/v) inactivated FBS. Then, 100 µL of the cell suspension are incubated with, or without, 3 μL of anti-human CD54 antibody (#353111, Biolegend, San Diego, CA, USA) or anti-human CD86 (#305414, Biolegend, San Diego, CA, USA) antibody for 30 min at 4° C. […] A total of 1×10^4 living cells are considered for analysis. The CD86 and CD54 levels are analyzed by flow cytometry with the acquisition channels FL1 and FL4. Based on the geometric mean fluorescence intensity (MFI), the relative fluorescence intensity (RFI) of CD86 and CD54 for positive control cells and chemical-treated cells is calculated according to the following equation: […]

[2] = test system: Poly-L-Lysine Hydrobromide (PLL); test: Lysine depletion protocol (in chemico reactivity towards lysine); conditions: 20 mM molecule incubated 1 h with DNFB 5 mM; FIG. 1B
Procedure: In an embodiment, a Lysine depletion Protocol—“in house development protocol” was applied, comprising: Dissolve 0.01 g of Poly-L-Lysine Hydrobromide (PLL) (Sigma, P1399) in 100 mL of purified water (use within 2 months). Filter the solution with a syringe filter to remove aggregates and store ate 4° C. for further use. For plate coating add 50 μL of PLL to each well of the 96 black bottom glass microplate (Corning ref 45806) and incubate for 2 hours at 37° C. or 24 h at room temperature.
In an embodiment, after the coating procedure, the contents of the plate were discarded into a sink and the plate is washed 3 times with 200 μL of PBS per well. Blot any residual PBS by firmly tapping the plate upside-down on absorbent paper. 20 mM of each potential ACD inhibitory molecule/mixture is added and incubated with 70 μl of the strong skin sensitizer 1-fluoro-2,4-dinitrobenzene (DNFB) (5 mM in DMSO) for 1h; the mixture was transferred to the plate and incubated for 24 h at 37° C. The contents of the plate were discarded and the wells were washed 3 times with PBS as previously reported. 70 μL of 10 μM Fluorescein-5-Ex-Succinimidyl Ester (FSE) were added and incubated for 1 h in the dark at 37° C. The contents of the plate were discarded; the wells were washed 3 times with PBS as previously stated. The fluorescence was read in a microplate reader (Exc 485±20 nm and Em 530±30 nm). Synergy™ HT plate reader (BioTek Instruments, Inc., Winooski, VT, USA): Bottom read with a sensibility of 50. […]
In an embodiment, Reference control A is made with the solvent DMSO, with incubation with FSE and is used to calculate the maximum fluorescence or absorbance in the presence of LYS. […]
In an embodiment, Test chemicals were pre-weighted into 1.5 mL test tubes and dissolved in 1 mL of DMSO to prepare a 100 mM solution immediately before use. The weight of the test chemical to be added to the vial was determined based on the molecular weight and purity. […]
In an embodiment, for the data Analysis the percentage of peptide depletion is determined by using the following formula: […]

[3] = Cysteine depletion protocol (glutathione in solution depletion); conditions: FIG. 1A
Procedure: In an embodiment, Cysteine depletion Protocol-Glutathione in solution depletion protocol—“in house development protocol” was applied: • In a test tube, mix 10 μL of the 100 mM test chemical solution with 190 μL of GSH solution (20 μL of GSH 2 mM and 170 μL of PB) and Incubated at RT, protected from light, for 1 h in a tube roller (40 rpm) • […]; [test chemical]f=5 mM; [GSH]f=0.2 mM; • 20 μL of Ellman's reagent 10 mM, a thiol sensitive colorimetric reagent was added. Mix gently by tapping manually in the test tube and incubate for 10 min at RT, in a test tube rotator protected from light; • The absorbance was read in a microplate reader at 405 nm. • Note: For each assay, a fresh Glutathione stock of 50 mM (0.00768 g in 500 μL of PBS) and the second stock of 2 mM in PBS (2 μL of the […] solution+48 μl of PBS) were freshly prepared.
In an embodiment, Control and Test Chemical Preparation was applied: • DNFB is used as the positive control for the assay in every assay run. For the negative control LA is used and for the reference control three types of reference controls are included in each study: • Reference control A is made with the solvent DMSO, with incubation with Ellman's reagent and is used to calculate the maximum fluorescence or absorbance in the presence of CYS containing peptides. […]
Test Chemicals: In an embodiment, test chemicals were pre-weighted into 1.5 mL test tubes and dissolved in 1 mL of DMSO to prepare a 100 mM solution immediately before use. The weight of the test chemical to be added to the vial is determined based on the molecular weight and purity. […]
In an embodiment, for the data analysis, the percent depletion of peptide is determined by using the following formula: […]

BALB/c mice = test: Murine local lymph node assay (BRDU-LLNA, flow cytometry); conditions: for skin ulcerations, allergen alone (mice ears): topical on ears, days 1-3
Procedure: In vivo validation of the efficacy of the hydrogel enriched with the best mixture of molecules, to avoid the development of skin sensitization using the murine local lymph node assay (LLNA)
This event can be confirmed using the in vivo test Local lymph node assay (LLNA), which is evaluated by flow cytometry (FCM) using the OECD Guideline for the testing of chemicals: BRDU (bromodeoxyuridine) ELISA (enzyme linked immunosorbent assay) or FCM 442B, as previously described and revised on OECD TG 442B [41].
During the entire procedure, the daily weight record is made to assess the welfare of the animals. […]
In an embodiment, on day 5, animals are intraperitoneally injected with 100 μl of BrdU mixture (20 mg/mL) in PBS. […] LNCs are stained with trypan blue (Sigma) and counted using a hemocytometer. LNCs (1.5×10^6 cells/mL) are prepared using a commercially FITC BrdU Flow Kit-Catalog No. 559619 (BD Biosciences, San Jose, CA, USA) and further analyzed by flow cytometry using a BD Accuri™ C6 Flow Cytometer (BD Biosciences, San Jose, CA, USA). Stimulation index (SI) values for each sample are calculated using the formula described in the OECD test guideline (TG 442B) [41].

[4] = test system: SkinEthic™ Reconstructed Human Epidermis (RHE); test: Skin irritation, SkinEthic Reconstructed Human Epidermis (RHE), MTT assay, OECD TG 439; assay type: cell-based; conditions: 42 min exposure, 42 h post-incubation, three tissue replicates, relative to PBS control, <50% = irritant, sulfate
Procedure: In an embodiment, skin irritation is evaluated using the SkinEthic™ Reconstructed Human Epidermis (RHE) model (EPISKIN Laboratories, Lyon, France), in compliance with the OECD Test Guideline No. 439-In Vitro Skin Irritation: Reconstructed
Human Epidermis Test Method. The RHE model consists of a differentiated three-dimensional epi-dermal tissue of human keratinocytes grown on a 0.5 cm^2 surface inert polycarbonate filter in a chemically defined medium at the air-liquid interface. Two specific media provided by EPISKIN are used: maintenance and growth media. […] The experiment also includes other inserts treated with PBS or 5% (w/v in water) SDS used as negative and positive controls, respectively. […] Tissue viability is assessed using the MTT (3-(4,5-dimethylthiazol-2-yl)-2,5-diphenyl-2H-tetrazolium bromide) assay. For that, tissues are incubated with MTT (1 mg/mL) at 37° C. for 3h; then the MTT solution was removed, and formazan crystals were dissolved with isopropanol. The absorbance was measured at 570 nm using a SpectraMax Plus 384 Spectrophotometer. […] If the tissue viability value is <50%, the samples are classified as irritants.

[5] = chelating agent; cited from earlier work
[6] = incubated before DNFB, vs DNFB alone
[7] = incubated before MI, vs MI alone

N[C@@H](CS)C(=O)O [CYS, cysteine]
HMOX1 expression [1, 6]: significantly decrease
TRX1 expression [1, 6]: significantly decrease
CD54 and CD86 maturation levels, pre-incubation before allergen (THP-1 cells): significantly decrease
reactivity of the strong allergen DNFB towards lysine (Lysine depletion) [2]: significantly inhibit
reactivity of the strong allergen DNFB towards cysteine (Glutathione depletion) [3]: significantly inhibit

O=C(O)C(S)C(S)C(=O)O (stereo not shown) [DMSA, 2,3 dimercaptosuccinic acid]
CD54 and CD86 maturation levels, pre-incubation before allergen (THP-1 cells): significantly decrease

O=[N+]([O-])c1ccc(F)c([N+](=O)[O-])c1 [DNFB, 1-fluoro-2,4-dinitrobenzene, reference compound]
levels of CD54 and CD86, allergen alone (THP-1 cells): significantly increases; also recorded: increase
presence of eosinophils in the ears (histology) (BALB/c mice; DNFB treated ears, FIG. 13B (gel 100 mM)): presence of eosinophils
skin ulcerations, allergen alone (mice ears) (BALB/c mice): induce skin ulcerations

N[C@@H](CCC(=O)N[C@@H](CS)C(=O)NCC(=O)O)C(=O)O [GSH, Glutathione]
HMOX1 expression [1, 6]: significantly decrease
SOD1 expression [1, 6]: significantly decrease
HMOX1 expression [1, 7]: significantly decrease
CD54 and CD86 maturation levels, pre-incubation before allergen (THP-1 cells): significantly decrease

N[C@@H](CCS)C(=O)O [HOMO, homocysteine]
HMOX1 expression [1, 6]: significantly decrease
SOD1 expression [1, 6]: significantly decrease
TRX1 expression [1, 7]: significantly decrease
CD54 and CD86 maturation levels, pre-incubation before allergen (THP-1 cells): significantly decrease

CSCC[C@H](N)C(=O)O [MET, methionine]
GST expression [1, 7]: significantly decrease
NQO1 expression [1, 7]: significantly decrease
CD54 and CD86 maturation levels, pre-incubation before allergen (THP-1 cells): significantly decrease

Cn1sccc1=O [MI, Methylisothiazolinone, reference compound]
levels of CD54 and CD86, allergen alone (THP-1 cells): significantly increases; also recorded: increase
skin ulcerations, allergen alone (mice ears) (BALB/c mice): induce skin ulcerations

CCCCCCCCCCCCOS(=O)(=O)[O-].[Na+] [SDS, sodium dodecyl sulfate]
Tissue viability (%) ([4]; listed as SDS (5%)): 1.41% and 1.44% and 1.62%
Tissue viability (%) [4]: significantly decrease

O=C(O)CN(CCN(CC(=O)O)CC(=O)O)CCN(CC(=O)O)CC(=O)O [diethylenetriaminepentaacetic]
prevention of nickel, chromium, and copper dermatitis [5]: can prevent
